Data as given in patent US10967032B2, “Optimum ratio for herbs combination obtained by using scientific-based formula for hypertension treatment and a composition thereof” (priority 2017, dated 2021).

Experiments:
[1] = tested on: voltage-operated calcium channel (VOCC); test: VOCC study: CaCl2-induced vasoconstriction of pre-treated aortic rings; type: cell-based, rat; details: 0.1, 0.3, 1 μM pre-incubation
Experimental: The experiment started by rinsing the mounted aortic rings with normal Krebs' solution for 3 times at 10 minutes interval. After that, the aortic rings were rinsed with EGTA (0.2 mM) contained Ca^2+-free high K^+ Krebs' solution for 10 minutes to eradicate the Ca^2+ residue, followed by rinsing with Ca^2+-free high K^+ Krebs' solution for twice at 10 minutes intervals. The resting potential was re-adjusted to 1.0 g before the application of any chemicals. In the control set, CaCl2 was added cumulatively (0.01-10 mM) into the tissue bath at 3 minutes interval. […] In the experimental groups, the F1-2 was added into tissue baths for 20 minutes before the addition of CaCl2. After that, the concentration-response curves were constructed, and maximum contraction (Cmax) values were recorded and compared to each other.

[2] = tested on: inositol triphosphate receptor (IP3R); test: IP3R study: PE-induced contraction of pre-treated endothelium-denuded aortic rings; type: cell-based, rat; details: 100 μM pre-incubation; P<0.001
Experimental: Similar with the VOCC mechanism study, three sets of experiments were carried out for investigating IP3R including the positive control set by applying the 2-APB (100 μM), control set (without treatment), and experimental sets by applying F1-2 (100 μl of 0.5, 2, and 8 mg/ml, separately, which equals to final concentration of 0.005, 0.02, and 0.08 mg/ml in tissue bath), in the endothelium-denuded isolated aortic rings. Similar protocol as elaborated in VOCC mechanism study was used to investigate this mechanism study. The only step different from VOCC mechanism study was the cumulative addition of CaCl2 was replaced by adding PE (1 μM) and left for 20 minutes to induce transient contraction after the 20 minutes pre-incubation with either 2-APB (positive control), F1-2 (experimental sets). The Cmax values were recorded and compared among each other.

[3] = tested on: spontaneous hypertensive rats (SHRs); test: Antihypertensive effect in SHRs, 28 days oral administration, tail-cuff SBP, DBP, MAP; type: in vivo, rat; details: 80 mg/kg oral
Experimental: All the orally administrated drugs were freshly prepared on the day the experiment was carried out. Thirty male SHRs were divided into five groups (n=6 per group) as such negative control, positive control (80 mg/kg of propranolol), and experimental groups (three different dosages for different groups). The weight, systolic BP, diastolic BP, and MAP of all SHRs in five groups were determined before the experiment was carried out and assigned as results for week 0. The negative control group of SHRs was treated with 5 ml/kg of distilled water. The positive control group was treated with 80 mg/kg of propranolol. The experimental groups were treated with 0.24273 (small dose), 0.48546 (medium dose), and 0.97092 g/kg (high dose) of F1-2, separately. Propranolol and F1-2 were prepared by dissolving in 0.5% of CMC prior to the administration. All drugs were orally administrated by using the 14-sized curved feeding needle (Kent Scientific Corporation, Torrington, Conn., USA) every morning after eight hours of fasting the night before, and were treated for 28 days consecutively with their weight, systolic BP, diastolic BP, and MAP measured once a week.
The SBP, DBP, and MAP were measured by using tail-cuff method with the non-invasive blood pressure measurement system, CODA (Kent Scientific Corporation, Torrington, Conn., USA) which was equipped with a controller, laptop CODA software, cuffs, animal restrainers, infrared warming pads, and infrared thermometer. The measurements were performed by the same researcher at the same daytime once weekly. Before the experiments commenced, the SHRs were housed in the restrainer according to their body size and pre-warmed on the warming plate at 32° C. and were covered by warming blanket for at least 15 minutes to intensify the pulsation of the tail artery. The measurements were repeated at least […] for each SHR to obtain at least six accepted measurements (n=6) by the CODA program. The obtained SBP, DBP, MAP of positive control and experimental groups were compared to the negative control.

COC(=O)C1=C(C)NC(C)=C(C(=O)OC)C1c1ccccc1[N+](=O)[O-] [nifedipine]
suppression of the contractile tone compared to control [1]: at least 80%

NCCOB(c1ccccc1)c1ccccc1 [Formula 2-APB, 2-APB]
contraction tension abolished compared to control [2]: approximately 97%

CC(C)NCC(O)COc1cccc2ccccc12 (centres unmarked) [propranolol]
DBP ([3]; 28 days, control 189.19±3.61): 139.69±3.15 mmHg | MAP ([3]; 28 days, control 200.97±3.22): 152.06±3.10 mmHg | SBP ([3]; week 4 (28 days), control 225.81±2.77): 182.08±2.38 mmHg
